The subject of series [1] is Phakopsora pachyrhizi. The experiment in a line: Phakopsora pachyrhizi / soybean / leaf disc preventative (Asian soybean rust). The following applies: foliar, 200 ppm in the applied formulation, soybean leaf disks, compared to untreated, read-out: disease control. The format is in vivo. In short, it runs like this:
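Read-out is percent disease control relative to untreated check discs, assessed once untreated discs show adequate disease, 12 to 14 days after application. Compounds, tested at 200 ppm in the applied formulation, are sprayed onto soybean leaf discs one day before inoculation with a spore suspension.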

The subject of series [2] is Uromyces viciae-fabae. Put plainly: Uromyces viciae-fabae / field bean / leaf disc preventative (faba-bean rust). The format is in vivo. To be noted: foliar, 288 h, 100 ppm in the applied formulation, field bean leaf discs, compared to untreated, read-out: disease control. The procedure:
Leaf disks or leaf segments of various plant species are cut from plants grown in a greenhouse. The cut leaf disks or segments are placed in multiwell plates (24-well format) onto water agar. The leaf disks are sprayed with a test solution before (preventative) or after (curative) inoculation. Compounds to be tested are prepared as DMSO solutions (max. 10 mg/ml) which are diluted to the appropriate concentration with 0.025% Tween20 just before spraying. The inoculated leaf disks or segments are incubated under defined conditions (temperature, relative humidity, light, etc.) according to the respective test system. A single evaluation of disease level is carried out 3 to 14 days after inoculation, depending on the pathosystem. Percent disease control relative to the untreated check leaf disks or segments is then calculated. Field bean leaf discs are placed on water agar in multiwell plates (96-well format) and 10 μl of the formulated test compound diluted in acetone and a spreader pipetted onto the leaf disc. Two hours after application leaf discs are inoculated by spraying a spore suspension on the lower leaf surface. The leaf discs are incubated in a climate cabinet at 22° C. with 18 hour light/day and 70% relative humidity. The activity of a compound is assessed as percent disease control compared to untreated when an appropriate level of disease damage appears in untreated check leaf disks (12 days after application). The following compounds at 100 ppm in the applied formulation give at least 80% disease control in this test when compared to untreated control leaf discs under the same conditions, which show extensive disease development.

For series [3], the system named is Puccinia recondita f. Sp. Tritici. Put plainly: Puccinia recondita f. sp. tritici / wheat / leaf disc preventative (brown rust). The format is in vivo. To be noted: foliar, 200 ppm in the applied formulation, wheat leaf segments cv. Kanzler, preventative (inoculated 1 day after application), compared to untreated, read-out: disease control. The method, boiled down: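 Wheat cv. Kanzler leaf segments on agar sprayed with diluted compound, inoculated with brown rust spores 1 day later. Kept at 19° C., 75% rh, 12 h light/dark; percent disease control versus untreated segments scored 7 to 9 days after application, compounds tested at 200 ppm.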

For series [4] the test system is unchanged. The experiment in a line: Puccinia recondita f. sp. tritici / wheat / leaf disc curative (brown rust). The format is in vivo. The following applies: foliar, 24 h, 200 ppm in the applied formulation, wheat leaf segments cv. Kanzler, curative (applied 1 day after inoculation), compared to untreated, read-out: disease control. In short, it runs like this:
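Curative test: wheat leaf segments cv. Kanzler on agar inoculated with spore suspension, kept dark at 19 °C/75% RH, then sprayed 1 day post-inoculation with compound diluted in water. Incubated at 19 °C, 75% RH, 12 h light/dark; percent disease control versus untreated scored 6–8 days after application.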

The subject of series [5] is Glomerella lacenarium (Colletotrichum lagenarium). The experiment in a line: Glomerella lagenarium liquid culture / cucumber / preventative (anthracnose). The format is cell-based. The following applies: Colletotrichum orbiculare; 20 ppm in the applied formulation; liquid culture (PDB), growth inhibition measured photometrically 3 to 4 days after application; compared to untreated; read-out: disease control. The method, boiled down: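 Conidia from cryogenic storage were mixed into potato dextrose broth. This was added to compound diluted from DMSO into 0.025% Tween20, tested at 20 ppm. Plates were incubated in the dark at 24 °C and 96% relative humidity, and growth was read photometrically after 2–7 days as % activity versus untreated check.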

The melting point is the temperature of the solid-liquid transition.

In turn, `COC(C)C(=O)NCc1ccc(-c2noc(C(F)(F)F)n2)cc1` (centres unmarked) [Compound 1.23, 2-methoxy-N-[[4-[5-(trifluoromethyl)-1,2,4-oxadiazol-3-yl]phenyl]methyl]propanamide] registered a melting point of 94 to 100 °C. In series [1], the pest or weed control at 200 ppm is ≥ 80%. The pest or weed control at 100 ppm in series [2] was ≥ 80%. In addition, the pest or weed control at 200 ppm in series [3] is ≥ 80%. The pest or weed control at 200 ppm in series [4] was ≥ 80%. In series [5], the inhibition of growth at 20 ppm was ≥ 80%.
For the compound `C=C(C)C(=O)NCc1ccc(-c2noc(C(F)(F)F)n2)cc1` [Compound 1.16, 2-methyl-N-[[4-[5-(trifluoromethyl)-1,2,4-oxadiazol-3-yl]phenyl]methyl]prop-2-enamide], the pest or weed control at 200 ppm in series [1] and in series [3] was ≥ 80% in each case. The pest or weed control at 100 ppm in series [2] is ≥ 80%. Besides, in series [5], the inhibition of growth at 20 ppm was ≥ 80%.
`N#CCC(=O)NCc1ccc(-c2noc(C(F)(F)F)n2)cc1` [Compound 1.22, 2-cyano-N-[[4-[5-(trifluoromethyl)-1,2,4-oxadiazol-3-yl]phenyl]methyl]acetamide]: the pest or weed control at 200 ppm in series [1], in series [3] and in series [4] was ≥ 80% throughout. In series [2], the pest or weed control at 100 ppm is ≥ 80%.
For the compound `CCC(COC)C(=O)NCc1ccc(-c2noc(C(F)(F)F)n2)cc1` (centres unmarked) [Compound 1.19, 2-(methoxymethyl)-N-[[4-[5-(trifluoromethyl)-1,2,4-oxadiazol-3-yl]phenyl]methyl]butanamide], the pest or weed control at 200 ppm in series [1], in series [3] and in series [4] was ≥ 80% throughout. In series [2], the pest or weed control at 100 ppm is ≥ 80%. Besides, in series [5], the inhibition of growth at 20 ppm was ≥ 80%.
For `CCC(=O)NCc1ccc(-c2noc(C(F)(F)F)n2)cc1` [Compound 1.1, N-[[4-[5-(trifluoromethyl)-1,2,4-oxadiazol-3-yl]phenyl]methyl]propanamide], the pest or weed control at 200 ppm in series [1], in series [3] and in series [4] was ≥ 80% in each case. Moreover, the pest or weed control at 100 ppm in series [2] is ≥ 80%. For the same compound, the inhibition of growth at 20 ppm in series [5] is ≥ 80%.
Regarding `CC(C)(C)C(=O)NCc1ccc(-c2noc(C(F)(F)F)n2)cc1` [Compound 1.2, 2,2-dimethyl-N-[[4-[5-(trifluoromethyl)-1,2,4-oxadiazol-3-yl]phenyl]methyl]propanamide], the melting point fell in the range of 120 to 127 °C. For the same compound, the pest or weed control at 200 ppm in series [1] was ≥ 80%. For the same compound, the pest or weed control at 100 ppm in series [2] was ≥ 80%. Besides, the pest or weed control at 200 ppm in series [3] is ≥ 80%. The pest or weed control at 200 ppm in series [4] is ≥ 80%. For the same compound, the inhibition of growth at 20 ppm in series [5] is ≥ 80%.
On to `COCCC(=O)NCc1ccc(-c2noc(C(F)(F)F)n2)cc1` [Compound 1.11, 3-methoxy-N-[[4-[5-(trifluoromethyl)-1,2,4-oxadiazol-3-yl]phenyl]methyl]propanamide], for which the pest or weed control at 200 ppm in series [1] and in series [3] was ≥ 80% throughout. Moreover, in series [2], the pest or weed control at 100 ppm is ≥ 80%. Moreover, in series [5], the inhibition of growth at 20 ppm is ≥ 80%.
`C#CC(C)(C)C(=O)NCc1ccc(-c2noc(C(F)(F)F)n2)cc1` [Compound 1.3, 2,2-dimethyl-N-[[4-[5-(trifluoromethyl)-1,2,4-oxadiazol-3-yl]phenyl]methyl]but-3-ynamide] returned a melting point of 55 to 60 °C. Further, the pest or weed control at 200 ppm in series [1] was ≥ 80%. Further, the pest or weed control at 100 ppm in series [2] is ≥ 80%. Further, the pest or weed control at 200 ppm in series [3] was ≥ 80%. In series [4], the pest or weed control at 200 ppm is ≥ 80%. The inhibition of growth at 20 ppm in series [5] was ≥ 80%.
Regarding `CC(C)(CCl)C(=O)NCc1ccc(-c2noc(C(F)(F)F)n2)cc1` [Compound 1.13, 3-chloro-2,2-dimethyl-N-[[4-[5-(trifluoromethyl)-1,2,4-oxadiazol-3-yl]phenyl]methyl]propanamide], the pest or weed control at 200 ppm in series [1], in series [3] and in series [4] was ≥ 80% each time. In addition, the pest or weed control at 100 ppm in series [2] is ≥ 80%. For the same compound, the inhibition of growth at 20 ppm in series [5] is ≥ 80%.
As to `C#CCCC(=O)NCc1ccc(-c2noc(C(F)(F)F)n2)cc1` [Compound 1.5, N-[[4-[5-(trifluoromethyl)-1,2,4-oxadiazol-3-yl]phenyl]methyl]pent-4-ynamide], the pest or weed control at 200 ppm in series [1], in series [3] and in series [4] was ≥ 80% throughout. For the same compound, the pest or weed control at 100 ppm in series [2] is ≥ 80%. Also, the inhibition of growth at 20 ppm in series [5] was ≥ 80%.

The values above are taken from patent US10501425B2, “Microbiocidal oxadiazole derivatives” (SYNGENTA PARTICIPATIONS AG, priority 2015, dated 2019).
